This note sets out measurements from patent US8242111B2, “Cyclic inhibitors of 11β-hydroxysteroid dehydrogenase 1” (Vitae Pharmaceuticals, Inc., priority 2008, dated 2012).

Test [1] concerns the target T1, human 11β-HSD1 (Homo sapiens, UniProt P28845).
T1 construct: expressed in transfected cells; host or cells: CHO cells (microsomes)
As to the kind of experiment: Biological Test Example 1: inhibition of a microsomal preparation of 11β-HSD1 (SPA). It is filed as biochemical. The note with it: for inhibition at 0.1 µM: read-out: Average % inhibition at 100 nM.

In test [2] the target is T1, human 11β-HSD1. As to the kind of experiment: Biological Test Example 4: inhibition of microsomal 11β-HSD1 in the presence of 50% human plasma. Type of test: biochemical. The following applies: examples; for IC50: 50% human plasma; for Shift: IC50 in Biological Test Example 4 divided by IC50 in Biological Test Example 1.
[3] abbreviates: Biological Test Example 1, read-out: IC50 Range.
[4] abbreviates: Biological Test Example 1 IC50 (nM), examples.

Where only a bound is given, the exact number is not on record here.

T1 sequence (P28845 whole entry): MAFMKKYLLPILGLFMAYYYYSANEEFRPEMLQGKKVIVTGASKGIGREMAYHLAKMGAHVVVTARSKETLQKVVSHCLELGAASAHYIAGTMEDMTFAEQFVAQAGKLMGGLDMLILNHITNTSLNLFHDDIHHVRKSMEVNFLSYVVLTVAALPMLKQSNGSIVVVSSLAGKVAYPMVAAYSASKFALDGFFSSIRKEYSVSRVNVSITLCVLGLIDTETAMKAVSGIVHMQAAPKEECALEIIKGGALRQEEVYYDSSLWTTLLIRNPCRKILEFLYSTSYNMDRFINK

One may read the IC50 as the point on the concentration scale where inhibition reaches its midpoint. As usually defined, the inhibition is the drop in the measured response relative to a control, in per cent. Regarding `O=C1O[C@@](CCCO)(c2ccc(F)cc2)CCN1[C@H]1CCCN(c2ccc(C(F)(F)F)cn2)C1` [Example 16, (R)-6-(4-fluorophenyl)-6-(3-hydroxypropyl)-3-((S)-1-(5-(trifluoromethyl)pyridin-2-yl)piperidin-3-yl)-1,3-oxazinan-2-one], the IC50 is < 100 nM at human 11β-HSD1 [1] (setting [3]), 1.4 nM on human 11β-HSD1 [1] (setting [4]) and 14.4 nM on human 11β-HSD1 [2]. Further, at human 11β-HSD1 [1], the inhibition at 0.1 µM was 94.9%. Besides, the Shift at human 11β-HSD1 [2] is 10.0.

Turning to `CC(C)(O)C[C@]1(c2ccccc2)CCN([C@H]2CCCN(c3ncc(F)cn3)C2)C(=O)O1` [Example 7, (S)-3-((S)-1-(5-fluoropyrimidin-2-yl)piperidin-3-yl)-6-(2-hydroxy-2-methylpropyl)-6-phenyl-1,3-oxazinan-2-one], the IC50 on human 11β-HSD1 [1] (setting [3]) is < 100 nM; against human 11β-HSD1 [1] (setting [4]) it was 6.1 nM; at human 11β-HSD1 [2], 14.8 nM. Also, the inhibition at 0.1 µM on human 11β-HSD1 [1] was 89.5%. Also, the Shift on human 11β-HSD1 [2] was determined as 2.4.

As to `COC(=O)c1cnc(N2CCC[C@H](N3CC[C@](CC(C)(C)O)(c4ccccc4)OC3=O)C2)nc1` [Example 10], the values for the IC50 on human 11β-HSD1 [1] (setting [3]), against human 11β-HSD1 [1] (setting [4]) and at human 11β-HSD1 [2] were < 100 nM, 5.5 nM and 69.2 nM, respectively. Besides, the inhibition at 0.1 µM at human 11β-HSD1 [1] was determined as 85.8%. Moreover, the Shift on human 11β-HSD1 [2] was found to be 12.7.

Regarding `CC(C)(O)C[C@]1(c2ccccc2)CCN([C@H]2CCN(c3ccc(C(F)(F)F)cn3)C2)C(=O)O1` [Example 15, (S)-6-(2-hydroxy-2-methylpropyl)-6-phenyl-3-((S)-1-(5-(trifluoromethyl)pyridin-2-yl)pyrrolidin-3-yl)-1,3-oxazinan-2-one], the results for the IC50 on human 11β-HSD1 [1] (setting [3]), against human 11β-HSD1 [1] (setting [4]) and at human 11β-HSD1 [2] were < 100 nM, 4.3 nM and 37.6 nM, respectively. The inhibition at 0.1 µM on human 11β-HSD1 [1] came to 92.2%. Moreover, the Shift on human 11β-HSD1 [2] is given as 8.7.

In the case of `CC(C)(O)C[C@]1(c2ccccc2)CCN([C@H]2CCCN(c3ncccc3C(F)(F)F)C2)C(=O)O1` [Example 2, (S)-6-(2-hydroxy-2-methylpropyl)-6-phenyl-3-((S)-1-(3-(trifluoromethyl)pyridin-2-yl)piperidin-3-yl)-1,3-oxazinan-2-one], the IC50 on human 11β-HSD1 [1] (setting [3]) is < 100 nM; against human 11β-HSD1 [1] (setting [4]), 22.6 nM; on human 11β-HSD1 [2], 210 nM. Besides, on human 11β-HSD1 [1], the inhibition at 0.1 µM turned out to be 77.8%. Further, the Shift on human 11β-HSD1 [2] was found to be 9.3.

For `COc1cnc(N2CCC[C@H](N3CC[C@](CC(C)(C)O)(c4ccccc4)OC3=O)C2)nc1` [Example 12, (S)-6-(2-hydroxy-2-methylpropyl)-3-((S)-1-(5-methoxypyrimidin-2-yl)piperidin-3-yl)-6-phenyl-1,3-oxazinan-2-one], the IC50 at human 11β-HSD1 [1] (setting [3]) was < 100 nM; on human 11β-HSD1 [1] (setting [4]) it was 4.3 nM; at human 11β-HSD1 [2] it was 10.4 nM. The inhibition at 0.1 µM at human 11β-HSD1 [1] came to 91.7%. Further, on human 11β-HSD1 [2], the Shift was determined as 2.4.

With `CC(C)(O)C[C@]1(c2ccccc2)CCN([C@H]2CCN(c3nccc(C(F)(F)F)n3)C2)C(=O)O1` [Example 23, (S)-6-(2-hydroxy-2-methylpropyl)-6-phenyl-3-((S)-1-(4-(trifluoromethyl)pyrimidin-2-yl)pyrrolidin-3-yl)-1,3-oxazinan-2-one], the results for the IC50 on human 11β-HSD1 [1] (setting [3]), on human 11β-HSD1 [1] (setting [4]) and on human 11β-HSD1 [2] were < 100 nM, 5.8 nM and 52.8 nM, respectively. Further, the inhibition at 0.1 µM on human 11β-HSD1 [1] worked out at 94.1%. The Shift on human 11β-HSD1 [2] turned out to be 9.2.
